Results reported in article PMC8828953, “In vitro Bioaccessibility and Intestinal Absorption of Selected Bioactive Compounds in Terminalia ferdinandiana” (Frontiers in Nutrition, 2022).
Values joined by “and” are separate entries in the source; they are usually repeats but may differ in a detail not shown here. Equal values may be shown once. “Also recorded” adds a separate entry of the source. Read-outs that look alike come from different tables or passages of the source. Marks after values point to notes of the source that are not given here.

How the values were obtained:
[1] = system: Caco-2 cell barrier; design: method as in PMID 27738446; conditions: reported previously; cited from earlier work
[2] = Intestinal absorption assay (Papp, apical to basolateral) across Caco-2-HT29-MTX-E12 coculture on Transwell; format: in vitro ADME, human; conditions: human, 10:1 dilution, applied 2 h, read-out: Apparent permeability (Papp)
Description: (§1) Caco-2 and HT-29-MTX-E12 cells were seeded on Costar Transwell® plate inserts in a ratio of 9:1 and at a density of 1,09,000 cells/cm^2 and 12,120 cells/cm^2, respectively. Cells were cultured in growth media at 37°C and 5% CO2 for 21 days to facilitate cell differentiation and formation of an intact monolayer. During the 21-day differentiation period, growth media was removed and replaced with fresh media every 2–3 days. Cell differentiation of an intact monolayer was monitored by measuring the transepithelial electrical resistance (TEER) of the cell monolayer in an apical–basolateral direction. TEER was measured using the Millicell-ERS Voltohmmeter from Millipore (Burlington, MA, USA). TEER is a measurement of resistance and is a sensitive and convenient method to assess and the integrity of the cell monolayer. The values obtained are determined by cellular resistance (between apical and basolateral membrane) and the paracellular resistance (tight junctions). TEER values above 300 Ω.cm^2 are indicative of differentiated Caco-2-HT29-MTX-E12 cells and an intact monolayer ([17]).
(§2) In vitro absorption was performed by following the procedure described by Osborne and colleagues ([18]). On the day of the intestinal absorption assay, TEER was measured and growth media was replaced with HBSS in the apical and basolateral chambers for 2 h to enhance uptake of the applied digesta. For the absorption study, intestinal digesta samples (I30, I60, and I120) were diluted 10:1 with HBSS. […] In the apical chamber, 200 μL diluted intestinal digesta (I30, I60, and I120) were applied for 120 min. HBSS (600 μL) was added in the basolateral chamber. After 2 h, all apical and basolateral samples were collected and stored at−80°C. HBSS was replaced with growth media in all chambers with TEER values measured again immediately after the assay. TEER was also recorded 24 and 48 h after the assay. Intestinal absorption studies were performed in duplicate. The rate of EA, AA, OA, and Ca^2+ movement across the transwell® membrane was determined by calculating the apparent permeability coefficient (Papp) in cm/s as follows ([19]):
(§3) ΔQ/Δt is steady-state appearance rate of compound in receiver (basolateral) compartment (μmol/s).
(§4) A is the surface area of the filter (i.e., 0.33 cm^2).
(§5) C0 is the initial concentration in the donor (apical) compartment (μM).
(§6) Intestinal absorption of AA, EA, OA, and Ca^2+ from digested T. ferdinandiana powder was measured using Caco-2-HT29-MTX-E12 coculture cell monolayers. Intestinal digesta samples that were collected at different time points (I30, I60, and I120) throughout the in vitro digestion were applied to the coculture transwell model for 120 min before apical and basolateral samples were collected. The amount of AA, EA, OA, and Ca^2+ was measured in the digesta initially applied to the apical chamber of the transwell model, and in samples collected from the basolateral chamber. Apparent permeability (Papp) was calculated with statistical significance observed (p ≤ 0.05) in Papp values obtained from the applied I30, I60, and I120 digesta samples (Figure 4 and Table 2).

[3] = system: Caco-2-HT29-MTX-E12 coculture cell monolayers; assay: as above; format: in vitro ADME, human; conditions: for In vitro permeability (in words): comparison among AA, EA, OA, Ca^2+; for Apparent permeability (Papp): 10:1 dilution, applied 2 h
Description: as §1, §2, §3, §4, §5, §6

[4] = INFOGEST static in vitro gastrointestinal digestion, bioaccessibility from T. ferdinandiana freeze-dried powder; format: in vitro ADME
Description: Freeze-dried T. ferdinandiana powder (0.5 g) was mixed with 20 mL milli-Q water, vortexed, and used as the initial starting material for in vitro gastrointestinal digestion based on the INFOGEST model detailed in Section INFOGEST Gastrointestinal in vitro Digestion ([14]). Digestions were performed in duplicate with samples collected at various time points throughout the digestion process. Gastric digesta samples were collected at t = 0 (G0) and t = 60 (G60) min into the gastric phase, and intestinal digesta were collected at t = 30 (I30), t = 60 (I60), and t = 120 (I120) min into the intestinal digestion phase.
A harmonized in vitro gastrointestinal digestion method developed in the COST action INFOGEST network was applied ([14]). Oral phase was not included in this experiment as T. ferdinandiana fruit is currently marketed as freeze-dried powder that would not undergo a substantial oral phase or may be incorporated into a nutraceutical product in pill, capsule, or beverage form. The digestive fluids (simulated salivary fluid (SSF), simulated gastric fluid (SGF), and simulated intestinal fluid (SIF)) were prepared according to the INFOGEST method ([14]). The activity of all enzymes was also measured according to the protocols described in the INFOGEST method ([14]) to ensure standardized application. […] Porcine pancreatin was used at 16 units/mL trypsin activity. […] Figure 1 provides an overview of the digestion protocols and conditions employed in the study. At the end of each digestion steps, samples were collected and snap-frozen (−80°C) to stop the digestion. Pefabloc at a concentration of 0.1 M was recommended to stop intestinal digestion; however, considering the cytotoxic nature of Pefabloc at a concentration ≥ 0.25 mM, Pefabloc was not applied to avoid future cell toxicity.
The samples were centrifuged and filtered through 0.22 μm syringe filters prior to analysis. An Acquity UHPLC system (Waters Corp., Milford, MA, USA), equipped with a Waters Acquity UHPLC photodiode array (PDA) detection system, was used to carry out the analysis. Empower™ software (Waters Corp., USA) was used to process and quantify peaks after recording the signals. A Waters Acquity HSS T3 analytical column (100 mm × 2.1 mm, 1.8 μm particle size) (Waters Corp., USA), with an isocratic mobile phase of 0.1% aqueous (v/v) formic acid at a flow rate of 250 μL/min, was used with an injection volume of 2 μL. The absorbance was measured at room temperature at 245 nm.
T. ferdinandiana digesta and intestinal absorption samples were analyzed for EA. All samples were centrifuged and filtered through 0.22 μm PTFE membrane filters (Millipore, CA, USA) before injection into the chromatographic system. Samples were analyzed on a Waters Acquity UHPLC system (Waters Corp., Milford, MA, USA) equipped with PDA detector. A Waters BEH Shield RP18 Column 130 °A, 1.7 μm (100 mm X 2.1 mm) from Waters Corporation (Milford, Massachusetts, USA) was used. Column temperature was maintained at 40°C, the injection volume was 2 μL, PDA spectrum was scanned from 200 to 400 nm with a rate of 2.5 Hz, and detection was carried out at 254 nm. […] Formic acid 0.1% was used for mobile phase A (Milli-Q water) and phase B (acetonitrile) at a flow rate of 0.4 mL/min.
T. ferdinandiana digesta and intestinal absorption samples were cleaned up with a SPE step ([20]) for OA analysis. Mixed reversed phase-[…] anion exchange sorbent Strata® SAX (55 μm, 70 Å, 500 mg/3 mL) was purchased from Phenomenex (Torrance, CA, USA) and used in this study. The SPE process was maintained through an Analytichem VAC ELUT SPS 24 Port Vacuum Manifold from Agilent Varian (Santa Clara, CA, USA). The SPE columns were sequentially conditioned with 3 mL of methanol and 3 mL of milli-Q water. Digesta and intestinal absorption samples at a volume of 1 mL dripped through the cartridges by gravity (with a flow rate of about 1 mL/min). The cartridges were washed with 3 mL of water and 3 mL of methanol.

[5] = system: HepG2 cells; design: method as in PMID 19101929; conditions: cited from earlier work
[6] = design: method as in PMID 23374081; conditions: blended fruit juice containing orange, pineapple, and kiwi; cited from earlier work
[7] = Gastric t = 0 (G0), released from T. ferdinandiana fruit matrix
[8] = Gastric t = 60 min (G60), pepsin
[9] = Intestinal t = 30 min (I30), pancreatin and bile
[10] = intestinal phase, time point not stated

Row | Papp at 120 min ([2]; I30 digesta) [×10⁻⁶ cm/s] | Papp at 120 min ([2]; I60 digesta) [×10⁻⁶ cm/s] | Papp at 120 min ([2]; I120 digesta) [×10⁻⁶ cm/s] | Bioaccessibility [4, 7] | Bioaccessibility [4, 8] | Bioaccessibility [4, 9] | Bioaccessibility ([4]; Intestinal t = 60 min (I60)) | Bioaccessibility ([4]; Intestinal t = 120 min (I120)) | Bioaccessibility [4, 10] [%] | Apparent permeability (Papp) ([3]; I30 digesta) | Apparent permeability (Papp) ([3]; I60 digesta) | Apparent permeability (Papp) ([3]; I120 digesta) | Bioaccessibility ([4]; Gastric t = 0 (G0), released from T. ferdinandiana fruit matrix, listed as calcium) [%] | Structure (SMILES) | Papp [1] | In vitro permeability (in words) [3] | Time at which absorption was detected after application [5] [min] | Time of peak absorption [5] [h] | Recovery after gastric digestion [6] [%]
1 | 796 ± 7 | 394 ± 4 | 201 ± 2 | 33% and 33 ± 1^b % | 42 ± 1^b % | 49% and 49 ± 3^b % | 49% and 49 ± 1^b % | 48% and 48 ± 1^b % | 48 |  |  |  |  | O=c1oc2c(O)c(O)cc3c(=O)oc4c(O)c(O)cc1c4c23 [EA, ellagic acid] | 0.347 ± 0.018 /10^−6 cm/s | highest permeability | 15 | 4 | 
2 | 258 ± 5 | 231 ± 1 | 150 ± 7 | 72% and 72 ± 7^c % | 85 ± 2^a % | 98% and 99^a ± 0.0% | 98 ± 3^a % | 89% and 89 ± 1^a % | 98 |  |  |  |  | O=C(O)C(=O)O [OA, oxalic acid] |  |  |  |  | 
3 | 41 ± 5 | 19 ± 0.4 | 10 ± 0.1 | 93% and 93 ± 2^a % |  | 93% and 93 ± 7^a % | 100% and 100 ± 1^a % | 79% and 79 ± 5^a % |  |  |  |  |  | O=C1O[C@H]([C@@H](O)CO)C(O)=C1O [AA, ascorbic acid] |  | low apparent permeability; also recorded: in vitro permeability was low |  |  | 83
4 |  |  |  | 67 ± 4^c % | 69 ± 1^a % | 90% and 90^a ± 0.0% | 90% and 90 ± 1^c % | 79% and 79 ± 2^a % | 90 | 60 ± 6^a x 10^−6 cm/s | 56 ± 7^a x 10^−6 cm/s | 50 ± 9^a x 10^−6 cm/s | 67 | [Ca+2] [Ca^2+, calcium] |  |  |  |  | 
